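Where inhibition never reached the appropriate level, the endpoint shown equals the highest concentration tested. Otherwise, values were interpolated linearly from a five-concentration, 48-hour dose response in 96-well plates. TGI: total growth inhibition.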
Key:
Test in all cases: growth of human tumour cells (NCI), 48 h
[1] = tested on: SW-620 colon
[2] = tested on: UACC-62 melanoma
[3] = tested on: EKVX NSCLC
[4] = tested on: HOP-92 NSCLC
[5] = tested on: MALME-3M melanoma
[6] = tested on: PC-3 prostate
[7] = tested on: SF-539 CNS
[8] = tested on: OVCAR-4 ovarian
[9] = tested on: NCI/ADR-RES ovarian
[10] = tested on: IGROV1 ovarian
[11] = tested on: UO-31 renal
[12] = tested on: HOP-62 NSCLC
[13] = tested on: K-562 leukemia
[14] = tested on: NCI-H460 lung
[15] = tested on: SF-268 CNS
[16] = tested on: NCI-H522 lung
[17] = tested on: COLO 205 colon
[18] = tested on: MCF7 breast
[19] = tested on: MDA-N
[20] = tested on: CCRF-CEM leukemia
[21] = tested on: UACC-257 melanoma
[22] = tested on: DU-145 prostate
[23] = tested on: TK-10 renal
[24] = tested on: SK-MEL-28 melanoma
[25] = tested on: SNB-19 CNS
[26] = tested on: OVCAR-8 ovarian
[27] = tested on: HCT-15 colon
[28] = tested on: SK-OV-3 ovarian
[29] = tested on: MDA-MB-231 breast
[30] = tested on: SF-295 CNS
[31] = tested on: SN12C renal
[32] = tested on: A549 NSCLC
[33] = tested on: M14 melanoma
[34] = tested on: NCI-H23 lung
[35] = tested on: LOX IMVI melanoma
[36] = tested on: T-47D breast
[37] = tested on: HT29 colon
[38] = tested on: MOLT-4 leukemia
[39] = tested on: RPMI-8226 leukemia
[40] = tested on: SNB-75 CNS
[41] = tested on: RXF 393 renal
[42] = tested on: MDA-MB-435
[43] = tested on: KM12 colon
[44] = tested on: ACHN renal
[45] = tested on: SK-MEL-5 melanoma
[46] = tested on: 786-0 renal
[47] = tested on: HL-60(TB) leukemia
[48] = tested on: HCT-116 colon
[49] = tested on: HS 578T breast
[50] = tested on: SR leukemia
[51] = tested on: BT-549 breast
[52] = tested on: HCC-2998 colon
[53] = tested on: CAKI-1 renal
[54] = tested on: NCI-H226 lung

Measured: TGI

CC(=O)OCc1ccc(-c2nc(C#N)c(N)o2)o1
> 10 µM: all assays above

From PubChem BioAssay (NCI)
